Assay results reported in patent US20240016781A1, “TREATMENT OF KRAS MUTANT CANCERS” (MEI Pharma, Inc., priority 2020, published 2024).
Where two headings read alike, the source gives them in different places. Blank lines part the entries; values can stand above or below the molecule they belong to.

Tests used:
Panc 04.03 = assay: 72-hour CellTiter-Glo 2.0 growth inhibition screen (single agent, 9x9 combination dose matrix); assay type: cell-based; details: Panc 04.03, Pancreas, 72 h
Gp2D = assay: as above; assay type: cell-based; details: Gp2D, Colorectal, 72 h
HCC1171 = assay: as above; assay type: cell-based; details: HCC1171, Lung, 72 h
NCI-H1373 = assay: as above; assay type: cell-based; details: NCl-H1373, Lung, 72 h
SW48 KRAS (G12C/+) = assay: as above; assay type: cell-based; details: SW48 KRAS (G12C/+), Colorectal, 72 h; for EC50: read-out: EC50
Huh-7 xenografts = assay: CIVO intratumoral microinjection, Huh-7 xenografts; assay type: in vivo; details: Huh-7 liver cancer model
Excerpt: FIG. 6 depicts the CIVO injection array.
CC3 is not elevated over background levels at any injection site.

[1] = Additional Single Agent Responses (inhibition, % I)
[2] = Additional Single Agent Responses
[3] = growth inhibition (GI) curve, single agent
[4] = growth inhibition (GI), AUC, single agent
[5] = growth inhibition (GI), single agent

EC50 (Panc 04.03; [1]): 1310 nM
IC50 (Panc 04.03; [1]): 1410 nM
EC50 (Panc 04.03; [3]): 1740 nM
GI50 (Panc 04.03; [3]): 1300 nM
EC50 (HCC1171; [1]): 680 nM
IC50 (HCC1171; [1]): 3030 nM
EC50 (HCC1171; [3]): 674 nM
GI50 (HCC1171; [3]): 734 nM
EC50 (NCI-H1373; [1]): 1030 nM
IC50 (NCI-H1373; [1]): 1230 nM
EC50 (NCI-H1373; [3]): 1390 nM
GI50 (NCI-H1373; [3]): 972 nM
IC50 (SW48 KRAS (G12C/+); [1]): 731 nM
EC50 (SW48 KRAS (G12C/+); [1]): 591 nM
GI50 (SW48 KRAS (G12C/+); [3]): 586 nM
EC50 (SW48 KRAS (G12C/+); [3]): 719 nM
Structure (SMILES): CN1CC[C@@H](c2c(O)cc(O)c3c(=O)cc(-c4ccc(C(F)(F)F)cc4Cl)oc23)[C@@H]1CO [MEI-522(Voruciclib)]
Response Area (Panc 04.03; [1]): 2.65
Max Response (% I) (Panc 04.03; [2]): 92 % I
Response Area (Panc 04.03; [4]): 4.67
Max Response (% GI) (Panc 04.03; [5]): 168 % GI
EC50 (Gp2D; [1]): 747 nM
IC50 (Gp2D; [1]): 791 nM
Response Area (Gp2D; [1]): 2.94
Max Response (% I) (Gp2D; [2]): 94 % I
EC50 (Gp2D; [3]): 1170 nM
GI50 (Gp2D; [3]): 695 nM
Response Area (Gp2D; [4]): 5.14
Max Response (% GI) (Gp2D; [5]): 176 % GI
Response Area (HCC1171; [1]): 1.62
Max Response (% I) (HCC1171; [2]): 51 % I
Response Area (HCC1171; [4]): 2.84
Max Response (% GI) (HCC1171; [5]): 89 % GI
Response Area (NCI-H1373; [1]): 2.58
Max Response (% I) (NCI-H1373; [2]): 86 % I
Response Area (NCI-H1373; [4]): 4.24
Max Response (% GI) (NCI-H1373; [5]): 147 % GI
Response Area (SW48 KRAS (G12C/+); [1]): 2.74
Max Response (% I) (SW48 KRAS (G12C/+); [2]): 85 % I
Response Area (SW48 KRAS (G12C/+); [4]): 3.67
Max Response (% GI) (SW48 KRAS (G12C/+); [5]): 115 % GI

Structure (SMILES): CN1CC[C@@H](c2c(O)cc(O)c3c(=O)cc(-c4ccc(C(F)(F)F)cc4Cl)oc23)[C@@H]1CO [Voruciclib, (+)-trans-2-(2-Chloro-4-trifluoromethylphenyl)-5,7-dihydroxy-8-(2-hydroxymethyl-1-methylpyrrolidin-3-yl)-chromen-4-one]
apoptotic cells (CC3) (Huh-7 xenografts): do not result in an increase in apoptotic cells
